Experimental data: PubChem BioAssay (NCI)
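Test compounds were applied to cells in 96-well plates for 48 hours at 5 doses. TGI marks complete inhibition of growth.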

Columns and labels:
Experiment in all cases: inhibition of tumour cell growth, NCI panel, 48 h
786-0 renal = tested on: 786-0 renal
A498 renal = tested on: A498 renal
A549 NSCLC = tested on: A549 NSCLC
ACHN renal = tested on: ACHN renal
BT-549 breast = tested on: BT-549 breast
CAKI-1 renal = tested on: CAKI-1 renal
CCRF-CEM leukemia = tested on: CCRF-CEM leukemia
COLO 205 colon = tested on: COLO 205 colon
DU-145 prostate = tested on: DU-145 prostate
EKVX NSCLC = tested on: EKVX NSCLC
HCC-2998 colon = tested on: HCC-2998 colon
HCT-116 colon = tested on: HCT-116 colon
HCT-15 colon = tested on: HCT-15 colon
HOP-62 NSCLC = tested on: HOP-62 NSCLC
HS 578T breast = tested on: HS 578T breast
HT29 colon = tested on: HT29 colon
IGROV1 ovarian = tested on: IGROV1 ovarian
K-562 leukemia = tested on: K-562 leukemia
KM12 colon = tested on: KM12 colon
M14 melanoma = tested on: M14 melanoma
MALME-3M melanoma = tested on: MALME-3M melanoma
MCF7 breast = tested on: MCF7 breast
MDA-MB-231 breast = tested on: MDA-MB-231 breast
MDA-MB-435 = tested on: MDA-MB-435
MDA-N = tested on: MDA-N
MOLT-4 leukemia = tested on: MOLT-4 leukemia
NCI-H226 lung = tested on: NCI-H226 lung
NCI-H23 lung = tested on: NCI-H23 lung
NCI-H522 lung = tested on: NCI-H522 lung
NCI/ADR-RES ovarian = tested on: NCI/ADR-RES ovarian
OVCAR-3 ovarian = tested on: OVCAR-3 ovarian
OVCAR-4 ovarian = tested on: OVCAR-4 ovarian
OVCAR-5 ovarian = tested on: OVCAR-5 ovarian
OVCAR-8 ovarian = tested on: OVCAR-8 ovarian
PC-3 prostate = tested on: PC-3 prostate
RPMI-8226 leukemia = tested on: RPMI-8226 leukemia
RXF 393 renal = tested on: RXF 393 renal
SF-268 CNS = tested on: SF-268 CNS
SF-295 CNS = tested on: SF-295 CNS
SK-MEL-2 melanoma = tested on: SK-MEL-2 melanoma
SK-MEL-28 melanoma = tested on: SK-MEL-28 melanoma
SK-MEL-5 melanoma = tested on: SK-MEL-5 melanoma
SK-OV-3 ovarian = tested on: SK-OV-3 ovarian
SN12C renal = tested on: SN12C renal
SNB-19 CNS = tested on: SNB-19 CNS
SNB-75 CNS = tested on: SNB-75 CNS
SW-620 colon = tested on: SW-620 colon
T-47D breast = tested on: T-47D breast
TK-10 renal = tested on: TK-10 renal
U251 CNS = tested on: U251 CNS
UACC-257 melanoma = tested on: UACC-257 melanoma
UACC-62 melanoma = tested on: UACC-62 melanoma
UO-31 renal = tested on: UO-31 renal
HL-60(TB) leukemia = tested on: HL-60(TB) leukemia
NCI-H460 lung = tested on: NCI-H460 lung
SR leukemia = tested on: SR leukemia
LOX IMVI melanoma = tested on: LOX IMVI melanoma
SF-539 CNS = tested on: SF-539 CNS
HOP-92 NSCLC = tested on: HOP-92 NSCLC

## CN(C)C(=C1c2cc([N+](=O)[O-])ccc2-c2ccc([N+](=O)[O-])cc21)N(C)C
786-0 renal
  TGI: > 100 µM
A498 renal
  TGI: > 100 µM
A549 NSCLC
  TGI: > 100 µM
ACHN renal
  TGI: > 100 µM
BT-549 breast
  TGI: > 100 µM
CAKI-1 renal
  TGI: > 100 µM
CCRF-CEM leukemia
  TGI: > 100 µM
COLO 205 colon
  TGI: > 100 µM
DU-145 prostate
  TGI: > 100 µM
EKVX NSCLC
  TGI: > 100 µM
HCC-2998 colon
  TGI: > 100 µM
HCT-116 colon
  TGI: > 100 µM
HCT-15 colon
  TGI: > 100 µM
HOP-62 NSCLC
  TGI: > 100 µM
HS 578T breast
  TGI: > 100 µM
HT29 colon
  TGI: > 100 µM
IGROV1 ovarian
  TGI: > 100 µM
K-562 leukemia
  TGI: > 100 µM
KM12 colon
  TGI: > 100 µM
M14 melanoma
  TGI: > 100 µM
MALME-3M melanoma
  TGI: > 100 µM
MCF7 breast
  TGI: > 100 µM
MDA-MB-231 breast
  TGI: > 100 µM
MDA-MB-435
  TGI: > 100 µM
MDA-N
  TGI: > 100 µM
MOLT-4 leukemia
  TGI: > 100 µM
NCI-H226 lung
  TGI: > 100 µM
NCI-H23 lung
  TGI: > 100 µM
NCI-H522 lung
  TGI: > 100 µM
NCI/ADR-RES ovarian
  TGI: > 100 µM
OVCAR-3 ovarian
  TGI: > 100 µM
OVCAR-4 ovarian
  TGI: > 100 µM
OVCAR-5 ovarian
  TGI: > 100 µM
OVCAR-8 ovarian
  TGI: > 100 µM
PC-3 prostate
  TGI: > 100 µM
RPMI-8226 leukemia
  TGI: 25.3 µM
RXF 393 renal
  TGI: > 100 µM
SF-268 CNS
  TGI: > 100 µM
SF-295 CNS
  TGI: > 100 µM
SK-MEL-2 melanoma
  TGI: > 100 µM
SK-MEL-28 melanoma
  TGI: > 100 µM
SK-MEL-5 melanoma
  TGI: > 100 µM
SK-OV-3 ovarian
  TGI: > 100 µM
SN12C renal
  TGI: > 100 µM
SNB-19 CNS
  TGI: > 100 µM
SNB-75 CNS
  TGI: > 100 µM
SW-620 colon
  TGI: > 100 µM
T-47D breast
  TGI: > 100 µM
TK-10 renal
  TGI: > 100 µM
U251 CNS
  TGI: > 100 µM
UACC-257 melanoma
  TGI: > 100 µM
UACC-62 melanoma
  TGI: > 100 µM
UO-31 renal
  TGI: > 100 µM

## CN=C(N)N/N=C(\C)c1ccc2oc3ccc(/C(C)=N/NC(N)=NC)cc3c2c1
786-0 renal
  TGI: > 100 µM
A498 renal
  TGI: > 31.3 µM
A549 NSCLC
  TGI: > 100 µM
ACHN renal
  TGI: > 48.8 µM
BT-549 breast
  TGI: > 22.8 µM
CAKI-1 renal
  TGI: 83 µM
CCRF-CEM leukemia
  TGI: 9.06 µM
COLO 205 colon
  TGI: > 100 µM
DU-145 prostate
  TGI: > 100 µM
EKVX NSCLC
  TGI: > 100 µM
HCC-2998 colon
  TGI: 4.97 µM
HCT-116 colon
  TGI: > 100 µM
HCT-15 colon
  TGI: > 100 µM
HL-60(TB) leukemia
  TGI: 10.7 µM
K-562 leukemia
  TGI: 15 µM
KM12 colon
  TGI: > 100 µM
M14 melanoma
  TGI: > 100 µM
MDA-MB-435
  TGI: > 100 µM
MDA-N
  TGI: > 30.6 µM
MOLT-4 leukemia
  TGI: 2.42 µM
NCI-H226 lung
  TGI: 4.73 µM
NCI-H460 lung
  TGI: > 100 µM
NCI/ADR-RES ovarian
  TGI: > 100 µM
OVCAR-3 ovarian
  TGI: > 100 µM
OVCAR-4 ovarian
  TGI: > 100 µM
OVCAR-5 ovarian
  TGI: > 87 µM
OVCAR-8 ovarian
  TGI: > 100 µM
PC-3 prostate
  TGI: 10.7 µM
RPMI-8226 leukemia
  TGI: 6.41 µM
RXF 393 renal
  TGI: > 50.7 µM
SF-295 CNS
  TGI: > 100 µM
SK-MEL-2 melanoma
  TGI: 5.24 µM
SK-MEL-28 melanoma
  TGI: > 100 µM
SK-MEL-5 melanoma
  TGI: > 100 µM
SK-OV-3 ovarian
  TGI: 74 µM
SN12C renal
  TGI: > 24.5 µM
SNB-19 CNS
  TGI: > 100 µM
SR leukemia
  TGI: 4.75 µM
SW-620 colon
  TGI: 5.33 µM
TK-10 renal
  TGI: > 100 µM
UACC-257 melanoma
  TGI: > 68.1 µM
UACC-62 melanoma
  TGI: > 23.8 µM
UO-31 renal
  TGI: > 100 µM

## CN(C)c1ccc(C(N)=O)cn1
786-0 renal
  TGI: > 100 µM
A549 NSCLC
  TGI: > 100 µM
ACHN renal
  TGI: > 100 µM
BT-549 breast
  TGI: > 100 µM
CCRF-CEM leukemia
  TGI: > 100 µM
COLO 205 colon
  TGI: > 100 µM
DU-145 prostate
  TGI: > 100 µM
EKVX NSCLC
  TGI: > 100 µM
HCC-2998 colon
  TGI: > 100 µM
HCT-116 colon
  TGI: > 100 µM
HCT-15 colon
  TGI: > 100 µM
HL-60(TB) leukemia
  TGI: > 100 µM
HOP-62 NSCLC
  TGI: > 100 µM
HS 578T breast
  TGI: > 100 µM
HT29 colon
  TGI: > 100 µM
IGROV1 ovarian
  TGI: > 100 µM
K-562 leukemia
  TGI: > 100 µM
KM12 colon
  TGI: > 100 µM
LOX IMVI melanoma
  TGI: > 100 µM
MALME-3M melanoma
  TGI: > 100 µM
MCF7 breast
  TGI: > 100 µM
MDA-MB-231 breast
  TGI: > 100 µM
MDA-MB-435
  TGI: > 100 µM
MDA-N
  TGI: > 100 µM
MOLT-4 leukemia
  TGI: > 100 µM
NCI-H23 lung
  TGI: > 100 µM
NCI-H460 lung
  TGI: > 100 µM
NCI-H522 lung
  TGI: > 100 µM
NCI/ADR-RES ovarian
  TGI: > 100 µM
OVCAR-3 ovarian
  TGI: > 100 µM
OVCAR-5 ovarian
  TGI: > 100 µM
OVCAR-8 ovarian
  TGI: > 100 µM
PC-3 prostate
  TGI: > 100 µM
RPMI-8226 leukemia
  TGI: > 100 µM
RXF 393 renal
  TGI: > 100 µM
SF-268 CNS
  TGI: > 100 µM
SF-295 CNS
  TGI: > 100 µM
SF-539 CNS
  TGI: > 100 µM
SK-MEL-2 melanoma
  TGI: > 100 µM
SK-MEL-28 melanoma
  TGI: > 100 µM
SK-MEL-5 melanoma
  TGI: > 100 µM
SN12C renal
  TGI: > 100 µM
SNB-19 CNS
  TGI: > 100 µM
SNB-75 CNS
  TGI: > 100 µM
SR leukemia
  TGI: > 100 µM
SW-620 colon
  TGI: > 100 µM
TK-10 renal
  TGI: > 100 µM
U251 CNS
  TGI: > 100 µM
UACC-257 melanoma
  TGI: > 100 µM
UACC-62 melanoma
  TGI: > 100 µM
UO-31 renal
  TGI: > 100 µM

## CC(=O)Nc1ccc(N2C(=O)/C(=C\c3cccc(Oc4ccccc4)c3)SC2c2ccccc2)cc1 (configuration not stated)
786-0 renal
  TGI: > 100 µM
A498 renal
  TGI: > 100 µM
A549 NSCLC
  TGI: > 100 µM
ACHN renal
  TGI: > 100 µM
BT-549 breast
  TGI: > 100 µM
CAKI-1 renal
  TGI: > 100 µM
CCRF-CEM leukemia
  TGI: 41.1 µM
COLO 205 colon
  TGI: > 100 µM
DU-145 prostate
  TGI: > 100 µM
EKVX NSCLC
  TGI: > 100 µM
HCC-2998 colon
  TGI: > 100 µM
HCT-116 colon
  TGI: 39.6 µM
HCT-15 colon
  TGI: > 100 µM
HL-60(TB) leukemia
  TGI: > 100 µM
HOP-62 NSCLC
  TGI: 56.6 µM
HOP-92 NSCLC
  TGI: 40.2 µM
HS 578T breast
  TGI: 66.3 µM
K-562 leukemia
  TGI: > 100 µM
KM12 colon
  TGI: 90.5 µM
LOX IMVI melanoma
  TGI: 34.3 µM
M14 melanoma
  TGI: > 100 µM
MALME-3M melanoma
  TGI: 62.4 µM
MCF7 breast
  TGI: 65.8 µM
MDA-MB-231 breast
  TGI: > 100 µM
MDA-MB-435
  TGI: > 100 µM
MDA-N
  TGI: 42.3 µM
MOLT-4 leukemia
  TGI: 68.5 µM
NCI-H226 lung
  TGI: > 100 µM
NCI-H23 lung
  TGI: > 100 µM
NCI-H460 lung
  TGI: > 100 µM
NCI-H522 lung
  TGI: 58.4 µM
NCI/ADR-RES ovarian
  TGI: > 100 µM
OVCAR-3 ovarian
  TGI: > 100 µM
OVCAR-4 ovarian
  TGI: > 100 µM
OVCAR-5 ovarian
  TGI: > 100 µM
OVCAR-8 ovarian
  TGI: 34.8 µM
RPMI-8226 leukemia
  TGI: 58.3 µM
RXF 393 renal
  TGI: > 100 µM
SF-268 CNS
  TGI: > 100 µM
SF-295 CNS
  TGI: > 100 µM
SF-539 CNS
  TGI: 33.4 µM
SK-MEL-2 melanoma
  TGI: > 100 µM
SK-MEL-28 melanoma
  TGI: 76.1 µM
SK-MEL-5 melanoma
  TGI: 68.6 µM
SK-OV-3 ovarian
  TGI: > 100 µM
SN12C renal
  TGI: 97 µM
SNB-19 CNS
  TGI: 48.5 µM
SR leukemia
  TGI: 56.4 µM
SW-620 colon
  TGI: > 100 µM
T-47D breast
  TGI: > 100 µM
TK-10 renal
  TGI: > 100 µM
U251 CNS
  TGI: 30.4 µM
UACC-257 melanoma
  TGI: > 100 µM
UACC-62 melanoma
  TGI: > 100 µM
UO-31 renal
  TGI: > 100 µM
